From paper PMC4932848 (Biochemistry, 2012)

Molecular target: T1, hUXS (human UDP-α-D-xylose synthase) (Homo sapiens, UniProt Q8NBZ7)
T1 sequence (Q8NBZ7 85-420): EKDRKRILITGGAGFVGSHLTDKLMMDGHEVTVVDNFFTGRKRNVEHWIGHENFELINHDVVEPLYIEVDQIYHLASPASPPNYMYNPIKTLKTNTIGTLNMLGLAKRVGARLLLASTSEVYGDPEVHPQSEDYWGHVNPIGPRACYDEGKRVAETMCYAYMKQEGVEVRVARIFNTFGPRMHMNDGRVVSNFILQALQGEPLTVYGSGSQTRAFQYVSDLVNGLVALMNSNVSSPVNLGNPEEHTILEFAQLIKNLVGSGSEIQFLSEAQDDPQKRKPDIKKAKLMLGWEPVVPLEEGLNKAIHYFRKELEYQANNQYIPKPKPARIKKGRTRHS
Experiment: X-ray crystal structure, […] Å
Type: binding
Details: copurified NAD+ bound, open conformation, no nucleotide sugar

## NC(=O)c1ccc[n+]([C@@H]2O[C@H](COP(=O)(O)OP(=O)(O)OC[C@H]3O[C@@H](n4cnc5c(N)ncnc54)[C@H](O)[C@@H]3O)[C@@H](O)[C@H]2O)c1 [NAD^+]
  X-ray crystal structure, 2.5 Å: Recombinant hUXS crystallizes with the copurified NAD^+ cofactor bound
